The IC50 is the point on the concentration scale where inhibition reaches its midpoint.

IC50 and MTD data for 30 compounds are collected here from patent US20070117836A1, “NAPTHALIMIDE DERIVATIVES, METHODS FOR THEIR PRODUCTION AND PHARMACEUTICAL COMPOSITIONS THEREFROM” (priority 2004, published 2007).

Where two headings read alike, the source gives them in different places. A value given as a limit tells only on which side of the number the result lay.

Data set [1] relates to Six human cancer cell lines (Hs683, U-373MG, HCT-15, LoVo, A549, MCF-7). As to the kind of experiment: MTT test of overall cell growth. Format: cell-based. As to the method:
In order to characterize the in vitro activity of the compounds of the invention, MTT tests were performed to indirectly and rapidly measure, i.e. within 5 days, the effect of such a compound on the overall cell growth. The test measures the number of metabolically active living cells that are able to transform the yellow product 3-(4,5-dimethylthiazol-2-yl)-2,5-diphenyl tetrazolium bromide (herein referred as MTT) into the blue product formazan dye by mitochondrial reduction. The amount of formazan obtained at the end of the experiment was measured by means of a spectrophotometer and is directly proportional to the number of living cells. Determination of the optical density enables a quantitative measurement of the effect of the investigated compounds as compared to the control condition (untreated cells) and/or to other reference compounds (in casu mitonafide and amonafide).
Six human cancer cell lines described in table 1 were used in the MTT tests. These cell lines cover four histological cancer types, being glioma, colon, lung and breast cancers. Cells were allowed to grow in 96-well micro-wells with a flat bottom with an amount of 100 μl of cell suspension per well with 1,000 to 4,000 cells/well depending on the cell type used. Each cell line was seeded in an MEM 5% serum culture medium.
The detailed experimental procedure was as follows: after a 24-hour period of incubation at 37° C., the culture medium was replaced by 100 μl of fresh medium in which the compound to be tested was dissolved at the following molar concentrations: 10^−9 M, 5.10^−9 M, 10^−8 M, 5.10^−8 M, 10^−7 M, 5.10^−7 M, 10^−6 M, 5.10^−6 M and 10^−5 M. Each experiment was repeated 6 times.
After 72 hours of incubation at 37° C. with (experimental conditions) or without (control condition) the compound to be tested, the medium was replaced by 100 μl MTT dissolved in RPMI at a concentration of 1 mg/ml. The micro-wells were subsequently incubated during 3 hours at 37° C. and centrifuged at 400 g during 10 minutes. MTT was removed and formazan crystals formed were dissolved in 100 μl DMSO. The micro-wells were shaken for 5 minutes and read on a spectrophotometer at wavelengths of 570 nm (maximum formazan absorbance) and 630 nm (background noise).
For each experimental condition, the mean optical density was calculated, as well as the percentage of remaining living cells in comparison with the control.
For orientation: Tetrazolium dyes change colour on reduction, which living cells bring about.

The nature of data set [2]: in vivo. Particulars: mouse.
Experimental: The maximum tolerated dose (herein after MTD) is defined as the maximum amount of a given drug which can be administered acutely (i.e. in one intraperitoneal, intravenous, subcutaneous or oral single dose) to healthy animals, i.e. animals not grafted with tumors. The survival times and weights of the animals are recorded up to 14 days post injection. Five different doses of each drug are used for the determination of the MTD index. […] Each experimental group comprised 3 mice for the determination of the MTD index (expressed in mg/kg).
[3] abbreviates: Homo sapiens, 72 h, range of molar concentrations giving 50% inhibition of overall tumor cells growth, MTT, 72 hours incubation, six human cancer cell lines, read-out: IC50.
Setting [4] is: range of molar concentrations giving 50% inhibition of overall tumor cells growth, MTT, 72 hours incubation, six human cancer cell lines, hydrochloride, read-out: IC50.
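Throughout, for MTD: highest single acute dose (intraperitoneal, intravenous, subcutaneous or oral) tolerated by tumor-free mice, assessed across five dose levels per drug.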

`COc1cc(C=Nc2cc3c4c(cccc4c2)C(=O)N(CCN(C)C)C3=O)ccc1O` [Example 18, 5-{[(1Z)-(4-hydroxy-3-methoxyphenyl)methylene]amino}-2-[2-(dimethylamino)ethyl]l-1H-benzo[de]isoquinoline-1,3(2H)-dione]: the IC50 in data set [1] (setting [3]) is more than 10 µM. Further, the MTD at 14 days in data set [2] is more than 80 mg/kg.
In the case of `CN(C)CCN1C(=O)c2cccc3cc(NC(=O)Nc4ccc(Cl)cc4)cc(c23)C1=O` [Example 6, N-[2-[2-(dimethylamino)ethyl]-1,3-dioxo-2,3-dihydro-1H-benzo[de]isoquinolin-5-yl]-N′-(4-chlorophenyl)urea], the IC50 in data set [1] (setting [3]) lay within 1 to 5 µM. The MTD at 14 days in data set [2] (intraperitoneal) was more than 160 mg/kg.
For `CN(C)CCN1C(=O)c2cccc3cc(N=Cc4ccc(C#N)cc4)cc(c23)C1=O` [Example 28, 2-[2-dimethylamino)ethyl]-5-{[(1Z)-(4-cyano-phenyl)-5-ylmethylene]amino}-1H-benzo[de]isoquinolin-1,3(2H)-dione], in data set [1] (setting [3]), the IC50 lay in the range of 5 to 10 µM. The MTD at 14 days in data set [2] was more than 80 mg/kg.
`CN(C)CCN1C(=O)c2cccc3cc(NCc4cc5c(cc4[N+](=O)[O-])OCO5)cc(c23)C1=O.Cl` [Example 41] showed an MTD at 14 days in data set [2] of more than 80 mg/kg.
Regarding `CN(C)CCN1C(=O)c2cccc3cc(NCc4cc5c(cc4[N+](=O)[O-])OCO5)cc(c23)C1=O` [Example 40], in data set [1] (setting [3]), the IC50 is more than 10 µM. For the same compound, the MTD at 14 days in data set [2] is more than 80 mg/kg.
The compound `CN(C)CCN1C(=O)c2cccc3cc(NCc4ccccc4OC4OC(CO)C(O)C(O)C4O)cc(c23)C1=O.Cl` (centres unmarked) [Example 39] gave an MTD at 14 days in data set [2] of more than 80 mg/kg.
With `CN(C)CCN1C(=O)c2cccc3cc(NC(=O)Cc4ccc(Cl)cc4)cc(c23)C1=O` [Example 13, 2-(4-chlorophenyl)-N-{2-[2-(dimethylamino)ethyl]-1,3-dioxo-2,3-dihydro-1H-benzo[de]isoquinolin-5-yl}acetamide], the IC50 in data set [1] (setting [3]) was 5 to 10 µM.
Consider `CN(C)CCN1C(=O)c2cccc3cc(NCc4cc5c(cc4[N+](=O)[O-])OCO5)cc(c23)C1=O.Cl` [Example 41, 5-{[(benzo([1,3]dioxol-6-nitro)-5-ylmethyl]amino}-N-(2-[2-dimethylamino)ethyl]-1H-benzo[de]isoquinolin-1,3(2H)-dione hydrochloride], for which the IC50 in data set [1] (setting [4]) fell in the range of 5 to 10 µM.
With `CN(C)CCN1C(=O)c2cccc3cc(NCc4ccccc4OC4OC(CO)C(O)C(O)C4O)cc(c23)C1=O.Cl` (centres unmarked) [Example 39, 5-{[2-(2-phenoxy-)-6-hydroxymethyltetrahydro-pyran-3,4,5-triol)-5-ylmethyl]amino}-N-(2-[2-dimethylamino)ethyl]-1H-benzo [de]isoquinolin-1,3(2H)-dione hydrochloride], in data set [1] (setting [4]), the IC50 is more than 10 µM.
Consider `CN(C)CCN1C(=O)c2cccc3cc(NC(=O)CCCCl)cc(c23)C1=O` [Example 12, 4-chloro-N-{2-[2-(dimethylamino)ethyl]-1,3-dioxo-2,3-dihydro-1H-benzo[de]isoquinolin-5-yl}butanamide], for which, in data set [1] (setting [3]), the IC50 is more than 10 µM.
As for `COc1ccc(CC(=O)Nc2cc3c4c(cccc4c2)C(=O)N(CCN(C)C)C3=O)cc1` [Example 15, 2-(4-methoxyphenyl)-N-{2-[2-(dimethyl-amino)ethyl]-1,3-dioxo-2,3-dihydro-1H-benzo[de]isoquinolin-5-yl}acetamide], the IC50 in data set [1] (setting [3]) fell in the range of 1 to 5 µM.
On to `CCOC(=O)CC(=O)Nc1cc2c3c(cccc3c1)C(=O)N(CCN(C)C)C2=O` [Example 14, ethyl 3-({2-[2-(dimethylamino)ethyl]-1,3-dioxo-2,3-dihydro-1H-benzo[de]isoquinolin-5-yl}amino)-3-oxopropanoate], for which the IC50 in data set [1] (setting [3]) was more than 10 µM.
In data set [1] (Homo sapiens, 72 h), `CN(C)CCN1C(=O)c2cccc3cc(NC(=O)NCCCl)cc(c23)C1=O` [Example 5, N-[2-[2-(dimethylamino)ethyl]-1,3-dioxo-2,3-dihydro-1H-benzo[de]isoquinolin-5-yl]-N′-(2-chloroethyl)urea] had an IC50 of 1 to 5 µM. In data set [2], this compound had an MTD at 14 days of more than 160 mg/kg.
As to `COc1ccc(NC(=O)Nc2cc3c4c(cccc4c2)C(=O)N(CCN(C)C)C3=O)cc1` [Example 30], the IC50 in data set [1] (setting [3]) lay within 1 to 5 µM.
Consider `CN(C)CCN1C(=O)c2cccc3cc(NC(=O)NC(=O)c4ccccc4)cc(c23)C1=O` [Example 3, N-[({2-[2-(dimethylamino)ethyl]-1.3-dioxo-2,3-dihydro-1H-benzo[de]isoquinolin-5-yl}amino)carbonyl]benzamide], for which, in data set [1] (setting [3]), the IC50 lay in the range of 1 to 5 µM. In data set [2] (intraperitoneal), this compound displayed an MTD at 14 days of 80 mg/kg.
On to `CN(C)CCN1C(=O)c2cccc3cc(NC(=O)NC(=O)CCl)cc(c23)C1=O` [Example 1, 2-chloro-N-[({2-[2-(dimethylamino)ethyl]-1,3-dioxo-2,3-dihydro-1H-benzo[de]isoquinolin-5-yl}amino)carbonyl]acetamide], for which the IC50 in data set [1] (setting [3]) is 1 to 5 µM.
As to `CN(C)CCN1C(=O)c2cccc3cc(NC(=S)Nc4ccc(C#N)cc4)cc(c23)C1=O` [Example 27, N-[2-[2-(dimethylamino)ethyl]-1,3-dioxo-2,3-dihydro-1H-benzo[de]isoquinolin-5-yl]-N′-(4-cyanophenyl)thiourea], the IC50 in data set [1] (setting [3]) was more than 10 µM. In data set [2], the MTD at 14 days was more than 80 mg/kg.
On to `CCOC(=O)c1ccc(NC(=O)Nc2cc3c4c(cccc4c2)C(=O)N(CCN(C)C)C3=O)cc1` [Example 8], for which the IC50 in data set [1] (setting [3]) is 1 to 5 µM. Further, the MTD at 14 days in data set [2] (intraperitoneal) is more than 160 mg/kg.
`CN(C)CCN1C(=O)c2cccc3cc(NCc4ccc5c(c4)OCO5)cc(c23)C1=O.Cl` [Example 38, 5-{[1,3-benzodioxol-5-ylmethy]amino}-N-(2-[2-dimethylamino)ethyl]-1H-benzo[de]isoquinolin-1,3(2H)-dione hydrochloride] gave an MTD at 14 days in data set [2] of more than 80 mg/kg.
Regarding `CN(C)CCN1C(=O)c2cccc3cc(NC(=S)Nc4ccc(Cl)cc4)cc(c23)C1=O` [Example 26, N-[2-[2-(dimethylamino)ethyl]-1,3-dioxo-2,3-dihydro-1H-benzo[de]isoquinolin-5-yl]-N′-(4-chlorophenyl)thiourea], the IC50 in data set [1] (setting [3]) is more than 10 µM. Moreover, the MTD at 14 days in data set [2] is more than 80 mg/kg.
`CN(C)CCN1C(=O)c2cccc3cc(NC(=O)C(Cl)(Cl)Cl)cc(c23)C1=O` [Example 16, 2,2,2-trichloro-N-{2-[2-(dimethylamino)ethyl]-1,3-dioxo-2,3-dihydro-1H-benzo[de]isoquinolin-5-yl}acetamide]: in data set [1] (setting [3]), the IC50 was more than 10 µM. Also, the MTD at 14 days in data set [2] is more than 80 mg/kg.
The corresponding values for `CN(C)CCN1C(=O)c2cccc3cc(NCc4ccc5c(c4)OCO5)cc(c23)C1=O` [Example 36, 5-{[1,3-benzodioxol-5-ylmethyl]amino}-N-(2-[2-dimethylamino)ethyl]-1H-benzo[de]isoquinolin-1,3(2H)-dione] are 5 to 10 µM and more than 80 mg/kg.
The corresponding values for `CCOC(=O)NC(=O)Nc1cc2c3c(cccc3c1)C(=O)N(CCN(C)C)C2=O` [Example 4, ethyl({2-[2-(dimethylamino)ethyl]-1.3-dioxo-2,3-dihydro-1H-benzo[de]isoquinolin-5-yl}amino)carbonylcarbamate] are 1 to 5 µM and 80 mg/kg.
Regarding `CN(C)CCN1C(=O)c2cccc3cc(NC(=O)C(F)(F)F)cc(c23)C1=O` [Example 29, 2,2,2-trifluoro-N-{2-[2-(dimethylamino)ethyl]-1,3-dioxo-2,3-dihydro-1H-benzo[de]isoquinolin-5-yl}acetamide], in data set [1] (setting [3]), the IC50 is 5 to 10 µM.
For the compound `CCOC(=O)CCC(=O)Nc1cc2c3c(cccc3c1)C(=O)N(CCN(C)C)C2=O` [Example 11], in data set [1] (setting [3]), the IC50 was more than 10 µM. In data set [2] (intraperitoneal), the MTD at 14 days was more than 160 mg/kg.
The compound `COc1ccc(OC(=O)Nc2cc3c4c(cccc4c2)C(=O)N(CCN(C)C)C3=O)cc1` [Example 31] displayed an IC50 in data set [1] (Homo sapiens, 72 h) of 10 µM.
Regarding `CN(C)CCN1C(=O)c2cccc3cc(NC(=O)c4ccccc4)cc(c23)C1=O` [Example 32, 2-[2-(dimethylamino)ethyl]-1,3-dioxo-2,3-dihydro-1H-benzo[de]isoquinolin-5-ylbenzamide], in data set [1] (setting [3]), the IC50 was more than 10 µM.
Consider `CN(C)CCN1C(=O)c2cccc3cc(NCc4ccc5c(c4)OCCO5)cc(c23)C1=O` [Example 42], for which the IC50 in data set [1] (setting [3]) was in the range of 5 to 10 µM. In data set [2], this compound yielded an MTD at 14 days of more than 80 mg/kg.
With `CN(C)CCN1C(=O)c2cccc3cc(/N=C\c4cc(O)ccc4O)cc(c23)C1=O.Cl` [Example 34, 2-[2-dimethylamino)ethyl]-5-{[(1Z)-(2,5-dihydroxyphenyl)methylene]amino}-1H-benzo[de]isoquinolin-1,3(2H)-dione hydrochloride], the IC50 in data set [1] (read-out: IC50) lay in the range of 1 to 5 µM.
In the case of `CN(C)CCN1C(=O)c2cccc3cc(NC(=S)Nc4ccc(OC(F)(F)F)cc4)cc(c23)C1=O` [Example 21], in data set [1] (setting [3]), the IC50 fell in the range of 1 to 5 µM.
